Results published in patent US12187727B2, “Methods for antagonizing a melanocortin 4 receptor” (Pfizer Inc., priority 2020, dated 2025).

Target: human Melanocortin-4 receptor (MC4R) (Homo sapiens (Human), UniProt P32245)
Experiment: Functional in vitro MC4R antagonist potency assay (cAMP HTRF in CHO cells)
Type: cell-based
Conditions: not given
Protocol: Example BB. Functional In Vitro MC4R Antagonist Potency Assay
The functional in vitro antagonist potency for test compounds was determined by monitoring intracellular cyclic adenosine monophosphate (cAMP) levels in Chinese hamster ovary (CHO—) cells stably expressing the human Melanocortin-4 receptor (MC4R). Following agonist activation, human MC4R associates with the G-protein complex causing the Gα subunit to exchange bound GDP for GTP, followed by dissociation of the Ga-GTP complex. The activated Gα subunit can couple to downstream effectors to regulate the levels of second messengers or cAMP within the cell. Thereby, determination of intracellular cAMP levels allows for pharmacological characterization. Intracellular cAMP levels are quantitated using a homogenous assay utilizing the Homogeneous Time-Resolved Fluorescence (HTRF) technology from CisBio. The method is a competitive immunoassay between native cAMP produced by cells and the cAMP labelled with the acceptor dye, d2. The two entities then compete for binding to a monoclonal anti-cAMP antibody labeled with cryptate. The specific signal is inversely proportional to the concentration of cAMP in the cells.
Test compounds were solubilized to 30 mM in 100% dimethyl sulfoxide (DMSO) and stored. […] The final compound concentration range in the assay was 400 nM to […], with a final DMSO concentration of 0.1%.
(95% O2: 5% CO2) overnight, with micro-clime lids (Labcyte, Cat No. LLS-0310). […] Cells were incubated with compound for 30 minutes at 37° C. (95% O2: 5% CO2) before addition of 5 μL EC80, agonist stimulation (200 nM α-melanocyte stimulating hormone, aMSH, Bachem) and another 30-minute incubation at 37° C. (95% O2: 5% CO2). Intracellular cAMP levels were quantified as per Cisbio's protocol (5 uL of D2 and then 5 uL Cryptate, incubated for 1-2 hours at room temperature).
Data expressed as nM cAMP were then normalized to control wells using Activity Base (IDBS). Zero percent effect (ZPE) was defined as nM of cAMP generated from ECK, agonist stimulation (200 nM aMSH). In the absence of an antagonist control compound, one hundred percent effect (HPE) was defined as nM of cAMP generated from assay buffer/vehicle only.

Chain of human Melanocortin-4 receptor (MC4R) (P32245 whole entry): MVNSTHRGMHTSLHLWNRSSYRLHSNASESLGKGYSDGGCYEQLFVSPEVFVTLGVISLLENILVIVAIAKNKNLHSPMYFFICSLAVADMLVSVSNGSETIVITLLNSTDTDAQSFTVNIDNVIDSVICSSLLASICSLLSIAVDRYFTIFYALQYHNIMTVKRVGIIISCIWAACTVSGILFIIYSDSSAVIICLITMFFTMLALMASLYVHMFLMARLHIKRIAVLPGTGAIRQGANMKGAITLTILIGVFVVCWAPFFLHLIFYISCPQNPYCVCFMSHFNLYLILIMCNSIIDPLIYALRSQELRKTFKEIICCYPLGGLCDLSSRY

Compared with `COc1cc([C@@H](C)C(=O)N2CC[C@@]3(CCc4cc(-c5nnn(C)n5)c(C)nc4N3)C2)c(F)cn1` [Example 13, (2R)-2-(5-Fluoro-2-methoxypyridin-4-yl)-1-[(2S)-7-methyl-6-(2-methyl-2H-tetrazol-5-yl)-3,4-dihydro-1H-spiro[1,8-naphthyridine-2,3′-pyrrolidin]-1′-yl]propan-1-one], `[2H]c1cc([2H])nc(-c2cc3c(nc2C)N[C@@]2(CC3)CCN(C(=O)[C@H](C)c3cc(OC)ncc3F)C2)n1` [Example 18, (2R)-2-(5-Fluoro-2-methoxypyridin-4-yl)-1-{(2S)-7-methyl-6-[(4,6-^2H2)pyrimidin-2-yl]-3,4-dihydro-1H-spiro[1,8-naphthyridine-2,3′-pyrrolidin]-1′-yl}propan-1-one] is 3.4-fold higher in Kb: 0.16 nM for the first, 0.55 nM for the second.

Same assay, conditions: cAMP HTRF in CHO cells expressing human MC4R, 200 nM aMSH; Kb by Leff-Dougall equation; geometric mean; read-out: Kb (nM) Antagonist geometric

For `COc1cc([C@@H](C)C(=O)N2CC[C@@]3(CCc4cc(-c5nccc(C(F)F)n5)c(C)nc4N3)C2)c(F)cn1` [Example 200, (2R)-1-{(2S)-6-[4-(difluoromethyl)pyrimidin-2-yl]-7-methyl-3,4-dihydro-1H-spiro[1,8-naphthyridine-2,3′-pyrrolidin]-1′-yl}-2-(5-fluoro-2-methoxypyridin-4-yl)propan-1-one], the Kb was 0.59 nM.

Same assay, conditions: human MC4R in CHO cells, cAMP HTRF, 200 nM aMSH challenge; Kb from IC50 by Leff-Dougall equation; geometric mean; read-out: Kb (nM) Antagonist geometric

Compared with `COc1cc(C(C)C(=O)N2CC[C@@]3(CCc4cc(-c5nnn(C)n5)c(C)nc4N3)C2)ccn1` (single isomer, unassigned) [Example 125], `COc1ncc(F)c(C(C)C(=O)N2CC[C@@]3(CCc4cc(-c5nnn(C)n5)c(C)nc4N3)C2)n1` (single isomer, unassigned) [Example 134] is higher in Kb: 5.1 nM for the first, over 97 nM for the second.

Going from `COc1cc(C(C)C(=O)N2CC[C@@]3(CCc4cc(-c5ncccn5)c(C)nc4N3)C2)c(C)cn1` (single isomer, unassigned) [Example 136] to `COc1cc([C@@H](C)C(=O)N2CC[C@@]3(CCc4cc(-c5nccnc5C)c(C)nc4N3)C2)c(F)cn1` [Example 164, (2R)-2-(5-fluoro-2-methoxypyridin-4-yl)-1-[(2S)-7-methyl-6-(3-methylpyrazin-2-yl)-3,4-dihydro-1H-spiro[1,8-naphthyridine-2,3′-pyrrolidin]-1′-yl]propan-1-one], the Kb rises from 0.16 nM to over 57 nM.

`COc1cc([C@@H](C)C(=O)N2CC[C@@]3(CCc4cc(-c5cnc(C)cn5)c(C)nc4N3)C2)c(F)cn1` [Example 158, (2R)-2-(5-fluoro-2-methoxypyridin-4-yl)-1-[(2S)-7-methyl-6-(5-methylpyrazin-2-yl)-3,4-dihydro-1H-spiro[1,8-naphthyridine-2,3′-pyrrolidin]-1′-yl]propan-1-one] and `COc1cc([C@@H](C)C(=O)N2CC[C@@]3(CCc4cc(-c5ccc(F)cn5)c(C)nc4N3)C2)c(F)cn1` [Example 139, (2R)-2-(5-fluoro-2-methoxypyridin-4-yl)-1-[(2S)-6-(5-fluoropyridin-2-yl)-7-methyl-3,4-dihydro-1H-spiro[1,8-naphthyridine-2,3′-pyrrolidin]-1′-yl]propan-1-one] are within 1.5-fold of each other in Kb: 23 nM for the first, 21 nM for the second.

Compared with `COc1cc(C(C)C(=O)N2CC[C@@]3(CCc4cc(-c5nnn(C)n5)c(C)nc4N3)C2)nc(C(F)F)n1` (single isomer, unassigned) [Example 127], `COc1cc(C(C)C(=O)N2CC[C@@]3(CCc4cc(-c5nc(C(F)F)n(C)n5)c(C)nc4N3)C2)nc(C)n1` (single isomer, unassigned) [Example 123] is 2.2-fold lower in Kb: 1.1 nM for the first, 0.5 nM for the second.

First: COc1cc([C@@H](C)C(=O)N2CC[C@@]3(CCc4cc(-c5cnc(C)s5)c(C)nc4N3)C2)c(F)cn1 [Example 153, (2R)-2-(5-fluoro-2-methoxypyridin-4-yl)-1-[(2S)-7-methyl-6-(2-methyl-1,3-thiazol-5-yl)-3,4-dihydro-1H-spiro[1,8-naphthyridine-2,3′-pyrrolidin]-1′-yl]propan-1-one]
Second: COc1cc([C@@H](C)C(=O)N2CC[C@@]3(CCc4cc(-c5nccc(C(F)(F)F)n5)c(C)nc4N3)C2)c(F)cn1 [Example 143, (2R)-2-(5-fluoro-2-methoxypyridin-4-yl)-1-{(2S)-7-methyl-6-[4-(trifluoromethyl)pyrimidin-2-yl]-3,4-dihydro-1H-spiro[1,8-naphthyridine-2,3′-pyrrolidin]-1′-yl}propan-1-one]
The Kb of the first is 5.8-fold higher: 15 nM for the first, 2.6 nM for the second.

Going from `COc1cc([C@@H](C)C(=O)N2CC[C@@]3(CCc4cc(-c5nc6ccccn6n5)c(C)nc4N3)C2)c(Cl)cn1` [Example 117, (2R)-2-(5-chloro-2-methoxypyridin-4-yl)-1-[(2S)-7-methyl-6-([1,2,4]triazolo[1,5-a]pyridin-2-yl)-3,4-dihydro-1H-spiro[1,8-naphthyridine-2,3′-pyrrolidin]-1′-yl]propan-1-one] to `COc1cc([C@@H](C)C(=O)N2CC[C@@]3(CCc4cc(-c5nc(C(F)F)n(C6CC6)n5)c(C)nc4N3)C2)c(F)cn1` [Example 189, (2R)-1-{(2S)-6-[1-cyclopropyl-5-(difluoromethyl)-1H-1,2,4-triazol-3-yl]-7-methyl-3,4-dihydro-1H-spiro[1,8-naphthyridine-2,3′-pyrrolidin]-1′-yl}-2-(5-fluoro-2-methoxypyridin-4-yl)propan-1-one], the Kb rises from 0.07 nM to 4.3 nM (61-fold).

`Cc1nc2c(cc1-c1nc(C(F)F)n(C)n1)CC[C@@]1(CCN(C(=O)Cc3ccc(F)c(F)c3)C1)N2` [Example 121, 1-{(2S)-6-[5-(difluoromethyl)-1-methyl-1H-1,2,4-triazol-3-yl]-7-methyl-3,4-dihydro-1H-spiro[1,8-naphthyridine-2,3′-pyrrolidin]-1′-yl}-2-(3,4-difluorophenyl)ethan-1-one] and `Cc1nc2c(cc1-c1nnn(C)n1)CC[C@@]1(CCN(C(=O)[C@H](C)c3ccc(C(F)(F)F)cc3)C1)N2` (single isomer, unassigned) [Example 109] are within 1.5-fold of each other in Kb: 4 nM for the first, 5.8 nM for the second.

Same assay, conditions: read-out: Kb (nM) Antagonist geometric mean

`COc1cc([C@H](C)C(=O)N2CC[C@]3(CCc4cc(-c5ncccn5)c(C)nc4N3)C2)c(F)cn1` [Example 30, (2S)-2-(5-fluoro-2-methoxypyridin-4-yl)-1-[(2R)-7-methyl-6-(pyrimidin-2-yl)-3,4-dihydro-1H-spiro[1,8-naphthyridine-2,3′-pyrrolidin]-1′-yl]propan-1-one] and `COc1cc([C@H](C)C(=O)N2CC[C@@]3(CCc4cc(-c5ncccn5)c(C)nc4N3)C2)c(F)cn1` [Example 28, (2S)-2-(5-fluoro-2-methoxypyridin-4-yl)-1-[(2S)-7-methyl-6-(pyrimidin-2-yl)-3,4-dihydro-1H-spiro[1,8-naphthyridine-2,3′-pyrrolidin]-1′-yl]propan-1-one] cannot be ordered by Kb: over 54 nM for the first, over 97 nM for the second.

`COc1cc([C@](C)(F)C(=O)N2CC[C@@]3(CCc4cc(-c5ncccn5)c(C)nc4N3)C2)ccn1` (single isomer, unassigned) [Example 46] and `COc1ccc([C@@H](C)C(=O)N2CC[C@@]3(CCc4cc(-c5ncccn5)c(C)nc4N3)C2)cc1F` (single isomer, unassigned) [Example 42] are within 1.5-fold of each other in Kb: 7.2 nM for the first, 9.4 nM for the second.

Compared with `Cc1nc2c(cc1-c1ncccn1)CC[C@@]1(CCN(C(=O)Cc3cc(F)c(F)c(F)c3)C1)N2` [Example 54, 1-[(2S)-7-methyl-6-(pyrimidin-2-yl)-3,4-dihydro-1H-spiro[1,8-naphthyridine-2,3′-pyrrolidin]-1′-yl]-2-(3,4,5-trifluorophenyl)ethan-1-one], `[2H]C([2H])([2H])Oc1cc([C@@H](C)C(=O)N2CC[C@@]3(CCc4cc(-c5ncccn5)c(C)nc4N3)C2)c(F)cn1` [Example 74, (2R)-2-{5-fluoro-2-[(^2H3)methyloxy]pyridin-4-yl}-1-[(2S)-7-methyl-6-(pyrimidin-2-yl)-3,4-dihydro-1H-spiro[1,8-naphthyridine-2,3′-pyrrolidin]-1′-yl]propan-1-one] is 6.8-fold lower in Kb: 4.1 nM for the first, 0.6 nM for the second.

First: COc1cnc(-c2cc3c(nc2C)N[C@@]2(CC3)CCN(C(=O)[C@H](C)c3cc(OC)ncc3F)C2)nc1 [Example 67, (2R)-2-(5-fluoro-2-methoxypyridin-4-yl)-1-[(2S)-6-(5-methoxypyrimidin-2-yl)-7-methyl-3,4-dihydro-1H-spiro[1,8-naphthyridine-2,3′-pyrrolidin]-1′-yl]propan-1-one]
Second: COc1cc([C@@H](C)C(=O)N2CC[C@@]3(CCc4cc(-c5nc(C(F)(F)F)n(C)n5)c(C)nc4N3)C2)c(Cl)cn1 (single isomer, unassigned) [Example 94]
The Kb of the first is 120-fold higher: 14 nM for the first, 0.12 nM for the second.

Work on `Cc1nc2c(cc1-c1nnn(C)n1)CC[C@@]1(CCN(C(=O)Cc3ccc(C(F)(F)F)cc3)C1)N2` (single isomer, unassigned) [Example 65, 1-[7-methyl-6-(2-methyl-2H-tetrazol-5-yl)-3,4-dihydro-1H-spiro[1,8-naphthyridine-2,3′-pyrrolidin]-1′-yl]-2-[4-(trifluoromethyl)phenyl]ethan-1-one] yielded a Kb of 10 nM.
